# Reference: patent publication US20090203661A1, “Betulinic acid, derivatives and analogs thereof and uses therefor” (priority 2006, published 2009)
# How the values were obtained:
# [1] = test system: Miapaca-2 pancreatic cancer cells; assay: Western blot of Sp proteins in Miapaca-2 cells; assay type: cell-based; conditions: Miapaca-2, 24 hr
# Method: RKO colon cancer cells were treated with BA/CN-BA for 24 hr (FIG. 15A) or 48 hr (FIG. 15B) and Miapaca-2 pancreatic cancer cells were treated with BA/CN-BA for 24 hr (FIG. 15C). Whole cell lysates were examined by Western blot analysis.
# LNCaP cells = assay: Western blot analysis of protein expression in LNCaP cells; assay type: cell-based, Human
# Method: (§1) Human carcinoma cell lines LNCaP (prostate) and SK-MEL2 (melanoma) were obtained from American Type Culture Collection (Manassas, Va.). Cell lines were maintained in RPMI 1640 (Sigma) supplemented with 0.22% sodium bicarbonate, 0.011% sodium pyruvate, 0.45% glucose, 0.24% HEPES, 10% FBS, and 10 mL/L of 100× Antibiotic Antimycotic solution (Sigma). Cells were maintained at 37° C. in the presence of 5% CO2.
# An equal amount of cell lysate (60 μg/well) was separated by 7.5% to 12% SDS-PAGE, which was followed by immunoblotting onto polyvinylidene difluoride (Bio-Rad, Hercules, Calif.). After blocking in TBST-Blotto (10 mmol/L Tris-HCl, 150 mmol/L NaCl (pH 8.0), 0.05% Triton X-100, 5% nonfat dry milk) for 30 min, the membranes were incubated with primary antibodies overnight at 4° C. and then with horseradish peroxidase-conjugated secondary antibody for 2 hr at room temperature. Proteins were visualized using the chemiluminescence substrate (Perkin-Elmer Life Sciences) for 1 min and exposed to Kodak X-OMAT AR autoradiography film (Eastman Kodak, Rochester, N.Y.).
# SK-MEL2 melanoma cells = assay: Cell proliferation (cell counting), SK-MEL2 melanoma cells; assay type: cell-based; conditions: Homo sapiens, SK-MEL-2, 144 h; SK-MEL2, 6 days; read-out: 6-day IC50 values for growth inhibition
# Method: as §1
# (§2) Prostate and melanoma cancer cells (2×10^4 per well) were plated in 12-well plates and allowed to attach for 24 hr. The medium was then changed to DMEM:Ham's F-12 medium containing 2.5% charcoal-stripped FBS and either vehicle (DMSO) or different concentrations of the compound were added. […] Each experiment was done in triplicate and results are expressed as means±SE for each set of experiments.
# [2] = test system: LNCaP prostate cancer cells; assay: Cell proliferation (cell counting), LNCaP prostate cancer cells; assay type: cell-based; conditions: Homo sapiens, 144 h, 6 days, read-out: 6-day IC50 values for growth inhibition
# Method: as §1, §2
# Panc-28 cells = assay: Cell proliferation assay, Panc-28 cells; assay type: cell-based; conditions: Homo sapiens, read-out: IC50 values, inhibition of growth
# Method: SW480, HT-29 and HCT-15 human colon cancer cells were provided by Dr. Stan Hamilton (M. D. Anderson Cancer Center (Houston, Tex.). Panc-28 human pancreatic cancer cells and 3T3-L1 pre-adipocytes were obtained from American Type Culture Collection (Manassas, Va.). SW480, HT-29 and Panc-28 cells were maintained in Dulbecco's modified/Ham's F-12 (Sigma-Aldrich, St Louis, Mo.) with phenol red supplemented with 0.22% sodium bicarbonate, 0.011% sodium pyruvate, 5% fetal bovine serum, and 10 mL/L 100× antibiotic antimycotic solution (Sigma). HCT-15 cells were maintained in RPMI 1640 (Sigma) supplemented with 0.22% sodium bicarbonate, 0.011% sodium pyruvate, 0.45% glucose, 0.24% HEPES, 10% fetal bovine serum, and 10 mL/L of 100× antibiotic antimycotic solution (Sigma). Cells were maintained at 37° C. in the presence of 5% CO2.
# This assay is performed in 12-well tissue culture plates at the concentration of 2×10^4 cells per well, using DMEM/Ham's F-12 media containing 2.5% charcoal stripped FBS. The cells were counted on the initial day using a Z1 cell counter (Beckman Coulter, Fullerton, Calif.) and then were treated either with vehicle (DMSO) or the indicated triterpenoid compounds, each sample in triplicate. Every 48 hr, fresh medium was added along with the indicated compounds. […] The results are expressed as means±S.E for each set of triplicate.
# LNCaP cell xenografts = assay: LNCaP xenograft in athymic nude mice; assay type: in vivo
# Method: Male athymic BALB/c nude mice (age 4-6 weeks) were purchased from Harlan (Indianapolis, Ind.). LNCaP cells (1×106) were implanted with matrigel (BD Biosciences, San Jose, Calif.) subcutaneously into the flank of each mouse. Ten days after cell inoculation, animals were divided into three groups of 10 mice each. The first group received 100 μL vehicle (1% DMSO in corn oil) by oral gavage and the second and third groups of animals received 10 and 20 mg/kg/d doses of BA in vehicle every second day for 14 days (7 doses). The mice were weighed, and tumor areas were measured throughout the study. After 22 days, the animals were sacrificed, final body and tumor weights were determined and selected tissues were further examined by routine hematoxylin and eosin staining and immunohistochemical analysis.
# Tissue sections ([…] thick) mounted on poly-Lysine-coated slides were deparaffinized by standard methods. Endogenous peroxidase was blocked by the use of 3% hydrogen peroxide in PBS for 10 min. Antigen retrieval for VEGF and CD31 staining was done for 10 min in 10 mmol/L sodium citrate buffer (pH 6) heated at 95° C. in a steamer followed by cooling for 15 min. […] Hematoxylin and eosin staining was determined as previously described.
SMILES,Sp protein expression [1],concentrations inducing tumor suppressor gene KLF6 (LNCaP cells),treatment time at which lower expression of Sp proteins is first observed (LNCaP cells; 15 μM),lowest doses at which Sp protein degradation and PARP cleavage are observed (LNCaP cells; 48 or 72 hr),"concentration inducing downregulation of Sp1, Sp3 and Sp4 proteins (LNCaP cells; 24 hr)",concentration inducing downregulation of cyclin D1 (LNCaP cells; 24 hr exposure),IC50 (SK-MEL2 melanoma cells),IC50 [2],IC50 (Panc-28 cells),"changes in organ or body weights or histopathology of liver and other tissues (LNCaP cell xenografts; 10 and 20 mg/kg/d, data not shown)","mitotic activity in tumors (LNCaP cell xenografts; treated mice, corn oil group 6-8)"
CC(C)C1CCC2(C(=O)O)CCC3(C)C(CCC4C5(C)C=C(C#N)C(=O)C(C)(C)C5CCC43C)C12 (centres unmarked) [CN-BA],decrease Sp protein expression,,,,,,,,,,
"C=C(C)[C@@H]1CC[C@]2(C(=O)O)CC[C@]3(C)[C@H](CC[C@@H]4[C@@]5(C)CC[C@H](O)C(C)(C)[C@@H]5CC[C@]43C)[C@@H]12 [betulinic acid, Betulinic acid]",,10 to 15 µM,12 h,1 to 2.5 µM,5 to 10 µM,≥ 10 µM,5 to 10 µM,1 to 5 µM,1 to 5 µM,no treatment-related changes,1-2 microfigures/hpf
